From patent US8501720B2, “Method for treatment of dysmenorrhea” (Bayer Pharma AG, priority 2004, dated 2013)

What was measured:
[1] = pharmacokinetics of drospirenone; type: in vivo; settings: i.e. after at most a week
Description: For example, in the present study, there was, a significant reduction of edema and breast tenderness among long-cycle users in comparison with the women on the conventional 21-day monthly cycle. Thus, in the event of these symptoms being present, a regimen of 42-126 days could be recommended.

[2] = Hershberger test; cited from earlier work
[3] = in vivo; cited from earlier work

C[C@]12CCC(=O)C=C1[C@@H]1C[C@@H]1[C@H]1[C@@H]3[C@@H]4C[C@@H]4[C@@]4(CCC(=O)O4)[C@@]3(C)CC[C@@H]12 [drospirenone]
time to steady state [1]: about four | antiandrogenic properties compared with chlormadinone acetate [2]: exceed those of chlormadinone acetate | antiandrogenic properties relative to cyproterone acetate [2]: approximately one-third | half-life [3]: about 27 h
